Results from patent publication US9085572B2, “4-(pyridin-3-yl)-2(pyridin-2yl)-1,2-dihydro-3H-pyrazol-3-one derivatives as specific HIF-pyrolyl-4-hydroxylase inhibitors for treating cardiovascular and haematological diseases” (Bayer Intellectual Property GmbH, priority 2005, dated 2015).
Where a name gives a salt, the structure may show the parent alone.

Assays:
[1] = system: recombinant A549 cell line with HRE-controlled luciferase reporter; test: Cellular, functional in vitro test: luciferase reporter under hypoxia-responsible elements in recombinant A549 cell line; type: cell-based; settings: Homo sapiens, luciferase light signal six to 24 hours after addition of test substance
Source text: The activity of the compounds according to the invention is quantified with the aid of a recombinant cell line. The cell is originally derived from a human lung carcinoma cell line (A549, ATCC: American Type Culture Collection, Manassas, Va. 20108, USA). The test cell line is transfected in a stable manner with a vector which contains the reporter gene of Photinus pyralis luciferase (called luciferase in the following) under the control of an artificial minimal promoter. The minimal promoter comprises two hypoxia-responsible elements upstream of a TATA box [Oehme F., Ellinghaus P., Kolkhof P., Smith T. J., Ramakrishnan S., Hütter J., Schramm M., Flamme I., Biochem. Biophys. Res. Commun. 296 (2), 343-9 (2002)]. Under the effect of hypoxia (e.g. culturing in the presence of 1% oxygen for 24 hours) or under the action of non-selective dioxygenase inhibitors (e.g. desferroxamine in a concentration of 100 μM, cobalt chloride in a concentration of 100 μM or N-oxalylglycine diethyl ester in a concentration of 1 mM), the test cell line produces luciferase, which can be detected and quantified with the aid of suitable bioluminescence reagents (e.g. Steady-Glo® Luciferase Assay System, Promega Corporation, Madison, Wis. 53711, USA) and a suitable luminometer.
Test Procedure: On the day before the test, the cells are plated out in an exactly calculated amount of culture medium (DMEM, 10% FCS, 2 mM glutamine) in 384- or 1,536-well microtiter plates and kept in a cell incubator (96% atmospheric humidity, 5% v/v CO2, 37° C.). On the test day, the test substances are added to the culture medium in graduated concentrations. No test substance is added to the cells in batches serving as negative controls. As a positive control for determination of the sensitivity of the cell to inhibitors, desferroxamine e.g. is added in a final concentration of 100 μM. Six to 24 hours after transfer of the test substances into the wells of the microtiter plate, the resulting light signal is measured in the luminometer. A dose/effect relationship is plotted with the aid of the measurement values, which serves as the basis for determining the half-maximum active concentration (call the EC50 value in the following).

[2] = target: HIF prolyl hydroxylase; test: Inhibition of the activity of HIF prolyl hydroxylase (VBC complex binding to hydroxylated peptide substrate); type: biochemical; settings: cell lysate containing prolyl hydroxylase, biotin-DLDLEMLAPYIPMDDDFQL peptide substrate
Protocol: Hydroxylated HIF bonds specifically to the von Hippel-Lindau protein-elongin B-elongin C complex (VBC complex). This interaction occurs only if HIF is hydroxylated on a conserved prolyl radical. It is the basis for the biochemical determination of HIF prolyl hydroxylase activity. The test is carried out as described [Oehme F., Jonghaus W., Narouz-Ott L., Huetter J., Flamme I., Anal. Biochem. 330 (1), 74-80 (2004)]:
A clear 96-well microtiter plate coated with NeutrAvidin HBC (Pierce) is incubated with blocker casein for 30 minutes. The plate is then washed three times with 200 μl each time of wash buffer (50 mM Tris, pH 7.5, 100 mM NaCl, 10% (v/v) blocker casein, 0.05% (v/v) Tween 20) per well. The peptide biotin-DLDLEMLAPYIPMDDDFQL (Eurogentec, 4102 Seraing, Belgium) is added in a concentration of 400 nM in 100 μl wash buffer. This peptide serves as a substrate for the prolyl hydroxylation and is bonded to the microtiter plate. After incubation for 30 minutes, the plate is washed three times with wash buffer, incubated with 1 mM biotin in blocker casein for 30 minutes and then washed again three times with wash buffer.
To carry out the prolyl hydroxylase reaction, the peptide substrate bonded to the plate is incubated with a cell lysate containing prolyl hydroxylase for 1 to 60 minutes. The reaction takes place in 100 μl reaction buffer (20 mM Tris, pH 7.5, 5 mM KCl, 1.5 mM MgCl2, 1 μM-1 mM 2-oxoglutarate, 10 μM FeSO4, 2 mM ascorbate) at room temperature. The reaction mixture moreover contains various concentrations of the prolyl hydroxylase inhibitor to be tested. The test substance is preferably, but not exclusively, employed at concentrations of between 1 nM and 100 μM. The reaction is stopped by washing the plate three times with wash buffer.
For quantitative determination of the prolyl hydroxylation, a fusion protein which contains both thioredoxin from E. coli and the VBC complex is added in 80 μl bonding buffer (50 mM Tris, pH 7.5, 120 mM NaCl). After 15 minutes, 10 μl of a solution of polyclonal anti-thioredoxin antibodies from rabbit in bonding buffer are added. After a further 30 minutes, 10 μl of a solution of anti-rabbit immunoglobulin coupled to horseradish peroxidase in bonding buffer are added. After incubation at room temperature for 30 minutes, the plate is washed three times with wash buffer in order to remove non-bonded VBC complex and antibodies. To determine the amount of bonded VBC complex, the plate is incubated with TMB for 15 minutes. The color reaction is ended by addition of 100 μl 1 M sulfuric acid. The amount of bonded VBC complex is determined by measurement of the optical density at 450 nm. It is proportional to the amount of hydroxylated proline in the peptide substrate.
Alternatively, a VBC complex coupled to europium (Perkin Elmer) can be used for detection of the prolyl hydroxylation. In this case, the amount of bonded VBC complex is determined by the fluorescence with respect to time. The use of VBC complex labeled with [^35S]-methionine is moreover possible. For this, the radioactively labeled VBC complex can be prepared by in vitro transcription-translation in reticulocyte lysate.

Row | SMILES | EC50 [1] [µM] | IC50 [2] [nM]
1 | O=c1c(-c2cccnc2)c[nH]n1-c1ccccn1 [Example 6, 2-Pyridin-2-yl-4-pyridin-3-yl-1,2-dihydro-3H-pyrazol-3-one] | 4.9 | 430
2 | O=c1c(-c2cccnc2)c[nH]n1-c1ccc(CO)cn1 [Example 23, 2-(5-Hydroxymethyl-pyridin-2-yl)-4-pyridin-3-yl-1,2-dihydro-3H-pyrazol-3-one hydrochloride] | 13.4 | 860
3 | Cc1ncccc1-c1c[nH]n(-c2ccccn2)c1=O [Example 26] | 6 | 760
4 | Cc1ccnc(-n2[nH]cc(-c3ccc(C#N)nc3)c2=O)c1 [Example 34, 4-(6-Cyanopyridin-3-yl)-2-(4-methylpyridin-2-yl)-1,2-dihydro-3H-pyrazol-3-one hydrochloride] | 4.7 | 180
5 | NCc1ccnc(-n2[nH]cc(-c3cccnc3)c2=O)c1 [Example 35, 2-[4-(Aminomethyl)pyridin-2-yl]-4-pyridin-3-yl-1,2-dihydro-3H-pyrazol-3-one dihydrochloride] | 17.2 | 2300
6 | O=c1c(-c2cccnc2)c[nH]n1-c1cc(CO)ccn1 [Example 43, 2-[4-(Hydroxymethyl)pyridin-2-yl]-4-pyridin-3-yl-1,2-dihydro-3H-pyrazol-3-one hydrochloride] | 7.6 | 1500
7 | O=C(Cc1ccccc1)NCc1ccnc(-n2[nH]cc(-c3cccnc3)c2=O)c1 [Example 46, N-{[2-(5-Oxo-4-pyridin-3-yl-2,5-dihydro-1H-pyrazol-1-yl)pyridin-4-yl]methyl}-2-phenylacetamide hydrochloride] | 7.4 | 700
8 | CC(=O)NCc1ccnc(-n2[nH]cc(-c3cccnc3)c2=O)c1 [Example 47, N-{[2-(5-Oxo-4-pyridin-3-yl-2,5-dihydro-1H-pyrazol-1-yl)pyridin-4-yl]methyl}acetamide hydrochloride] | 12.4 | 2200
9 | O=C(NCc1ccnc(-n2[nH]cc(-c3cccnc3)c2=O)c1)c1ccccc1 [Example 48, N-{[2-(5-Oxo-4-pyridin-3-yl-2,5-dihydro-1H-pyrazol-1-yl)pyridin-4-yl]methyl}benzamide hydrochloride] | 18.9 | 1900
10 | O=C(CCn1cc(Cl)cn1)NCc1ccnc(-n2[nH]cc(-c3cccnc3)c2=O)c1 [Example 50, 3-(4-Chloro-1H-pyrazol-1-yl)-N-{[2-(5-oxo-4-pyridin-3-yl-2,5-dihydro-1H-pyrazol-1-yl)pyridin-4-yl]methyl}propanamide] | 7.1 | 1900
